Measured values reported in US20180110762A1, “Compositions Methods for Treating Chronic Kidney Disease” (Merck Sharp & Dohme Corp, priority 2015, published 2018).

Experiments:
[1] = system: male obese ZSF1 rats (diabetic nephropathy model); test: ZSF1 rat study: GFR measurement by FITC-sinistrin clearance; type: in vivo
Method: (§1) The effects of Compound A (“A”) on renal function, plasma triglycerides, plasma cholesterol, kidney collagen I, kidney collagen III, renal histology, glomerular filtration rate, fibrosis score, and mRNA gene expression (profibrotic genes and integrin β3) were evaluated in male obese ZSF1 rats (a hybrid F1 of Zucker diabetic fatty rat and spontaneously hypertensive heart failure rat; a diabetic nephropathy model) when administered as in-feed for 28 weeks. Sixty obese male ZSF1 rats were randomized to five groups: Obese control (n=12), Compound A 60 mpk (n=12), Compound A 200 mpk (n=12), Compound A 400 mpk (n=12), Enalapril 10 mpk (n=12); Eight lean male ZSF1 rats were used for normal control. Renal functional changes were monitored by blood and urine analysis following in-feed dosing for 28 weeks. Compound exposure was also monitored during the study.
For the measurement of GFR, a miniaturized device (NIC-Kidney, Mannheim Pharma & Diagnostics, Mannheim, Germany) was used. In brief, the device (batteries, diodes, and microprocessor) containing an optical component was affixed on a depilated region of the back using a double-sided sticky patch (Lohmann GmbH KG, 56567, Neuwied, Germany) under isofluorane anesthesia (3% isoflurane mixed with oxygen). After a resting baseline period of 1-1.5 minutes, a bolus of FITC-sinistrin (5 mg/100 g body weight, dissolved in 0.5 mL sterile isotonic saline) was injected through the tail vein. The rat was then placed in a clean cage for recovery from anesthesia to responsible ambulation. […] The excretion kinetics of FITC-sinistrin was determined using a sampling rate of 60 measurements per minute with an excitation time of 10 milliseconds per measurement for 120 minutes after the injection. One compartment model was used for FITC-sinistrin clearance. After completion of GFR measurement, the device was gently removed from the skin and the rat returned to its home cage.

human podocytes = test: Oris cell migration assay, PAN-induced podocyte motility, vitronectin coated plate; type: cell-based; settings: 48 h; for % migrated cells vs control cells: VN plate
Method: The effects of Compound A on podocyte motility were evaluated using Oris cell migration assay kit in 96-well plates (coated with either vitronectin or fibronectin). The Oris™ Cell Migration Assay is designed with a unique cell seeding stopper or biocompatible gel, detection mask, and stopper tool. These unique plate designs generate highly reproducible results using a microscope, digital imaging system. 7 to 10-day differentiated human podocytes (100 ul of 50,000 cells/ml) were seeded in each well of the ORIS plate. After sitting at room temperature for about 15 minutes, the plate was placed into 37° C. incubator and podocytes were incubated with complete podocyte medium for 24 h. Stoppers from each well (keeping stoppers in 4 wells which were served as time zero control) were carefully removed, medium discarded, and fresh (10% FBS) podocyte medium added to each well. Podocytes were pretreated with Compound A (10 uM to 0.01 nM) for 2 h prior to puromycin animonucleoside (PAN, 30 ug/ml or 15 ug/ml) treatment. Podocytes were then treated with PAN in the presence or absence of Compound A at different concentrations (ranging from 10 uM to 0.01 nM) in 10% FBS medium for 48 h. Podocytes were then fixed with 4% paraformaldehyde in PBS for 30 minutes (adding 50 ul to each well). After discarding the fixative, podocytes were stained with Hoechst 33342 (stock […] working concentration at 5 uM) for 30 min. Podocytes were then washed with PBS three times. Finally, after adding 100 ul of PBS to each well, plate was sealed with a black cover and kept at 4° C. until image analysis. Images of podocyte motility were captured using Acumen eX3 (manufacturer TTP Labtech Ltd. address: Melbourn Science Park, Melbourn, Hertfordshire SG8 6EE, United Kingdom).
Effect of Compound A (“A”) on human podocyte motility was examined using Oris cell migration assay in vitronectin (VN) coated-96-well plate.

[2] = system: male obese ZSF1 rats (diabetic nephropathy model); test: ZSF1 rat study: kidney collagen I and III immunostaining; type: in vivo
Method: as §1
Following deparaffinization and rehydration, each kidney tissue section was processed to identify collagen I and III deposition. The primary antibodies used were rabbit anti-type I collagen polyclonal antibody (Abcam, Cambridge, Mass.) diluted at 2 ug/ml, and rabbit anti-type III collagen polyclonal antibody (Lifespan, Seattle, Wash.) at 3 ug/ml. The signal was developed by using Super PicTure HRP Polymer Rabbit Primary kit (Invitrogen) and the slides were counterstained with hematoxylin. The Aperio ScanScope XT Slide Scanner (Aperio Technologies, Vista, Calif.) system was used to capture whole slide digital images with a 20× objective. Digital images were managed using Aperio Spectrum. The positive stains were identified and quantified using a macro created from a color deconvolution algorithm (Aperio Technologies, Vista, Calif.).

[3] = target: T1, Human recombinant integrin α5β1 (Homo sapiens, UniProt P05556+P08648); test: Thermal shift assay (differential scanning fluorimetry), α5β1; type: binding; settings: α5β1, 20 μM Compound A
T1 construct: purchased R&D Systems
Method: Differential scanning fluorimetry was performed on a LightCycler 480 II, real-time PCR instrument (Roche Diagnostics). Human recombinant integrins from R&D Systems (αvβ1, αvβ3 and α5β1) were reconstituted at a concentration of […] in assay buffer (20 mM HEPES, pH=7.3, 100 mM NaCl, 1 mM MgCl2, 1 mM MnCl2) and diluted in assay buffer with Sypro orange (SIGMA) to a final concentration of 400 nM integrin and 5× Sypro orange. A volume of 4.9 μL of this mixture of protein and dye was transferred to a 384-well plate and 100 nL of DMSO or Compound A, dissolved in DMSO, were added using an Echo 555 instrument (Labcyte). The final concentration of Compound A in the assay was 20 μM. After mixing, the assay plate was sealed, spun at 1,000×g for two minutes, and subsequently heated from 25 to 99° C. over the course of 31 min in the LightCycler 480 II instrument. Fluorescence intensity was measured using excitation/emission wavelengths of 465 and 580 nm, respectively. Changes in protein thermal stability (ΔTm) upon compound binding were analyzed by using LightCycler 480 (software provided by the manufacturer).

[4] = obese ZSF1 rats, 200 mpk in-feed, week 28
[5] = obese ZSF1 rats, 400 mpk in-feed, week 28

T1 sequence (P08648 42-995 limits assumed): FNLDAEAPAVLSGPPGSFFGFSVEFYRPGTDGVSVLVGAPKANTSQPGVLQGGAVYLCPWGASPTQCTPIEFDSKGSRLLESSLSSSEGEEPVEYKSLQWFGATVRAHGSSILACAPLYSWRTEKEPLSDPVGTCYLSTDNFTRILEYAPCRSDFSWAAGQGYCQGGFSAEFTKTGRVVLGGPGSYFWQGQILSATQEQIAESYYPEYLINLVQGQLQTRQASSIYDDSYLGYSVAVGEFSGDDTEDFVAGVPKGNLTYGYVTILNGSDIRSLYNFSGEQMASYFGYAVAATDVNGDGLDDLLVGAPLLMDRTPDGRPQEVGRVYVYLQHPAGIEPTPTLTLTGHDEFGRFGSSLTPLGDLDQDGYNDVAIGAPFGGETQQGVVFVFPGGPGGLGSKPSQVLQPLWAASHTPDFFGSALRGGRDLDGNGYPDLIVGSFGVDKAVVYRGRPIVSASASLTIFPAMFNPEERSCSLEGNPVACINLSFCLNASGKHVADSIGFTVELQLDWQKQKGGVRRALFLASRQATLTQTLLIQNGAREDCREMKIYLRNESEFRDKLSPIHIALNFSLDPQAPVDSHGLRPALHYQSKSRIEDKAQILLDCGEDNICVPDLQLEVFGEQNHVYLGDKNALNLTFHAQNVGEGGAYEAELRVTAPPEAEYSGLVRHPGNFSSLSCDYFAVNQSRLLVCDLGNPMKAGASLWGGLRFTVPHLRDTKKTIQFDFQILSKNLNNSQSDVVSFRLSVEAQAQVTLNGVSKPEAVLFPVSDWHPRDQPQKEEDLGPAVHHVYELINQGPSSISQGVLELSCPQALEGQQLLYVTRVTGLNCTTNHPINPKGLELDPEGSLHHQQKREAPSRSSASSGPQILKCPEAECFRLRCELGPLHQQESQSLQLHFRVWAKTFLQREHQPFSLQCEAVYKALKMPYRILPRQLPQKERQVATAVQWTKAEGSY
T1 sequence (P05556 21-728 limits assumed): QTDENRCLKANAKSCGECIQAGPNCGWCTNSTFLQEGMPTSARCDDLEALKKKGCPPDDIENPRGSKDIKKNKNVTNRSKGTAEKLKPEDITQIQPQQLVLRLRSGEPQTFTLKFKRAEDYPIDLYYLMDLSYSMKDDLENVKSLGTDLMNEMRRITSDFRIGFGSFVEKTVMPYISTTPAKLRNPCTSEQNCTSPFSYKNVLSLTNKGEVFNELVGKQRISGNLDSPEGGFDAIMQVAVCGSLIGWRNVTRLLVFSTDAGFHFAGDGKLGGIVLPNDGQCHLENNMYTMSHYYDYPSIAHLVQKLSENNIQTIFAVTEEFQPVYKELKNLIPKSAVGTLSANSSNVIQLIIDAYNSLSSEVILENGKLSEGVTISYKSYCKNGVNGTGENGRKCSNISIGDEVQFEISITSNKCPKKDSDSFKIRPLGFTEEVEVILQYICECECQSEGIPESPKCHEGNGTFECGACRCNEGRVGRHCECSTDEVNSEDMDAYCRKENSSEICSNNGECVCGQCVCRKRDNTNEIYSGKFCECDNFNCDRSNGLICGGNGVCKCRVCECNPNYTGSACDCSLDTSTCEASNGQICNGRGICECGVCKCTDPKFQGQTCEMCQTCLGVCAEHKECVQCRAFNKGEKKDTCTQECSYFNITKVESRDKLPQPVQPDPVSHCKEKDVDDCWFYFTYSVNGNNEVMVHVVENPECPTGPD

**Q.** How did the “effect on glomerular filtration rate” value ([1]; 60 mpk, 200 mpk and 400 mpk at weeks 28-30) turn out when `COc1ccc([C@H](CC(=O)O)N2CCN(CCCc3ccc4c(n3)NCCC4)C2=O)cn1` [Compound A, 3-{2-Oxo-3-[3-(5,6,7,8-tetrahydro-[1,8]naphthyridin-2-yl)-propyl]imidazolidin-1-yl}-3 (S)-(6-methoxy-pyridin-3-yl)-propionic acid] was run?
**A.** Its value is “no significant effect”.

**Q.** And the Glomerular Filtration Rate ([1]; ZSF-1 rats vs untreated obese ZSF-1 rats (summary))?
**A.** Its Glomerular Filtration Rate is “non-statistically significant improvements in glomerular filtration rate”.

**Q.** What about the “Glomerular Filtration Rate” value ([1]; obese ZSF1 rats, 60 mpk in-feed, week 28) of the same molecule?
**A.** The value was 609.8 ± 42.1 uLs/Min/100 gm BW.

**Q.** What about the “FITC-sinistrin clearance, % change of improvement compared to Obese Vehicle group” value [1, 4] of the same molecule?
**A.** Its value is 8.8%.

**Q.** What about the “Glomerular Filtration Rate” value [1, 4] of the same molecule?
**A.** The value was 663.2 ± 50.6 uLs/Min/100 gm BW.

**Q.** And the “FITC-sinistrin clearance, % change of improvement compared to Obese Vehicle group” value [1, 5]?
**A.** Its value is 14.4%.

**Q.** What about the “Glomerular Filtration Rate” value [1, 5] of the same molecule?
**A.** The value was 697.5 ± 37.9 uLs/Min/100 gm BW.

**Q.** And the IC50 (human podocytes; Homo sapiens, vitronectin coated plates, PAN 30 ug/ml, read-out: IC50, inhibition of puromycin-induced human podocyte motility)?
**A.** The IC50 was 9.94 nM.

**Q.** And the “% migrated cells vs control cells” value (human podocytes; PAN 30 ug/ml + A 0.01 nM)?
**A.** The value was 55.1%.

**Q.** And the “% migrated cells vs control cells” value (human podocytes; PAN 30 ug/ml + A 0.0316 nM)?
**A.** The value was 44.0%.

**Q.** And the “% migrated cells vs control cells” value (human podocytes; PAN 30 ug/ml + A 0.1 nM)?
**A.** Its value is 43.0%.

**Q.** What about the “% migrated cells vs control cells” value (human podocytes; PAN 30 ug/ml + A 0.316 nM) of the same molecule?
**A.** Its value is 36.6%.

**Q.** What about the “% migrated cells vs control cells” value (human podocytes; PAN 30 ug/ml + A 1 nM) of the same molecule?
**A.** The value was 42.1%.

**Q.** What about the “% migrated cells vs control cells” value (human podocytes; PAN 30 ug/ml + A 3.16 nM) of the same molecule?
**A.** Its value is 31.3%.

**Q.** What about the “% migrated cells vs control cells” value (human podocytes; PAN 30 ug/ml + A 10 nM) of the same molecule?
**A.** Its value is 28.6%.

**Q.** And the “% migrated cells vs control cells” value (human podocytes; PAN 30 ug/ml + A 100 nM)?
**A.** The value was 19.6%.

**Q.** What about the “% migrated cells vs control cells” value (human podocytes; PAN 30 ug/ml + A 1 uM) of the same molecule?
**A.** Its value is 16.1%.

**Q.** What about the “% migrated cells vs control cells” value (human podocytes; PAN 30 ug/ml + A 10 uM) of the same molecule?
**A.** The value was 16.9%.

**Q.** What about the “effect on kidney collagen I protein levels vs Obese Vehicle” value ([2]; 400 mpk at week 28) of the same molecule?
**A.** The value was “significantly decreased”.

**Q.** And the “effect on kidney collagen III protein levels vs Obese Vehicle” value ([2]; 400 mpk at week 28)?
**A.** The value was “significantly decreased”.

**Q.** And the “kidney collagen I protein levels” value [2, 4]?
**A.** Its value is 39.79 ± 0.82 % of area.

**Q.** What about the “kidney collagen I protein levels” value [2, 5] of the same molecule?
**A.** The value was 36.45 ± 0.85 % of area.

**Q.** And the “kidney collagen III protein levels” value [2, 5]?
**A.** Its value is 19.23 ± 0.76 % of area.

**Q.** And the ΔTm at 20 µM ([3]; first of two experiments)?
**A.** Its ΔTm at 20 µM is 8.1 °C.

**Q.** And the ΔTm at 20 µM ([3]; second of two experiments)?
**A.** The ΔTm at 20 µM was 14 °C.
